US6395876B1 (Medical College of Georgia Research Institute, Inc., priority 1997, dated 2002)
Values joined by “and” are separate entries in the source; they are usually repeats but may differ in a detail not shown here. Identical values can stand only once. “Also recorded” adds a separate entry of the source. Like-named read-outs stand apart in the source and are kept apart here.

Tests used:
[1] = tested on: high affinity tryptophan transporter; test: Competition of unlabeled substrates with radiolabeled tryptophan uptake, high-affinity system, macrophages; format: cell-based, human
Procedure: Uptake measurements. Single cell suspensions were obtained by treating macrophage monolayers with 2 mM EDTA in Hanks balanced salt solution for 15 minutes at room temperature. Cells were washed twice in Tris-choline buffer (150 mM choline chloride, 10 mM tris, pH 7.4), suspended in Tris-choline at between one and 2×10^6 cells/ml, and 100 μl/well added to 96 well microtiter plates. Titrations of radiolabeled amino acids were then transferred to the assay plate and uptake allowed to proceed for 10 minutes (the linear range). At the end of the assay period, wells were harvested simultaneously onto glass-fiber filters and washed vigorously for 30 seconds with phosphate buffered saline solution using a Tomtec 96 well parallel harvester. Nonspecific binding of radioactivity to the filters (based on wells without cells) was typically less than 10% of the total signal, and was subtracted from each data point. All assays were performed in triplicate; where error bars are not shown the SD between replicates was less than 10%. In all assays, the uptake rate (V) was normalized per 1×10^6 cells (expressed as pmol 10^6 cells^−1. 10 min^−1). Normalization to milligrams protein was considered less informative because protein content can change markedly during macrophage differentiation, independently of other functional attributes.

system L [2] = test: Competition of unlabeled substrates with radiolabeled tryptophan uptake, system L component, macrophages; format: cell-based, human; settings: for Ki: read-out: Ki (fit to Equation 1, single-system competitive model)
Excerpt: (§1) For competitive inhibition studies, the Ki value for each competitor was estimated by fitting the measured inhibition curve to the formula in Equation 1 (Cheng and Prusoff 1973, Biochem. Pharmacol. 22, 3099-3108). [formula]
(§2) where [S] is the concentration of labeled substrate, [I] is the concentration of unlabeled inhibitor, Vi is the observed rate of uptake in the presence of inhibitor, Ki is the putative affinity constant of the inhibitor for the transporter, and Km and Vmax have their customary meanings.

system L [3] = test: Radiolabeled amino acid uptake saturation kinetics, lower-affinity system, macrophages; format: cell-based, human; settings: for Km: read-out: Km of low affinity transporter (system L)
Excerpt: Monocyte isolation and culture.
Analysis of saturation kinetics.

[4] = tested on: high affinity tryptophan transporter
Procedure: Human peripheral blood monocytes were isolated from healthy volunteer donors by leukocytapheresis and counterflow centrifugal elutriation, following appropriate informed consent under a protocol approved by our Institutional Review Board.
Single cell suspensions were obtained by treating macrophage monolayers with 2 mM EDTA in Hanks balanced salt solution for 15 minutes at room temperature. Cells were washed twice in Tris-choline buffer (150 mM choline chloride, 10 mM tris, pH 7.4), suspended in Tris-choline at between one and 2×10^6 cells/ml, and 100 μl/well added to 96 well microtiter plates. […] Nonspecific binding of radioactivity to the filters (based on wells without cells) was typically less than 10% of the total signal, and was subtracted from each data point. […] In all assays, the uptake rate (V) was normalized per 1×10^6 cells (expressed as pmol 10^6 cells^−1. 10 min^−1). […]
Uptake kinetics were analyzed using an Eadie-Hofstee transformation (V/[S] vs. V) to identify linear concentration ranges for each transporter. Data from these two ranges were then analyzed separately using double-reciprocal (Lineweaver-Burk, 1/[S] vs. 1/V) plots to determine Km and Vmax. […] Kinetic parameters were calculated on a minimum of 4-6 points, and were considered reliable if the correlation coefficient of the regression line was greater than 0.95. […]

system L [5] = settings: read-out: reported Km of system L for tryptophan; reported affinity; cited from earlier work
[6] = tested on: monocyte derived macrophages; test: Total tryptophan uptake in monocyte-derived macrophages (sodium and temperature dependence); format: cell-based, human
Procedure: The majority of tryptophan uptake is sodium-independent. Uptake in the absence of sodium was 86±6% of uptake in saline, n=4 Therefore all subsequent assays were performed in the absence of sodium.

system L [7] = test: Competition of unlabeled tryptophan for uptake of radiolabeled leucine or phenylalanine, macrophages; format: cell-based, human; settings: labeled leucine or phenylalanine 125 nM
Excerpt: as §1, §2

[8] = unlabeled competitor 4 μM, radiolabeled tryptophan 125 nM
[9] = unlabeled competitor vs radiolabeled tryptophan (125 or 250 nM)
[10] = uptake of the radiolabeled amino acid, high substrate concentrations (8-64 μM)
[11] = read-out: IC50 for inhibition of radiolabeled tryptophan uptake, radiolabeled tryptophan 125 nM

## C[C@@H](O)[C@H](N)C(=O)O [THR]
[1]; [8]
  effect of 4 μM unlabeled competitor on tryptophan uptake: little impact

## N[C@@H](Cc1ccccc1)C(=O)O [phenylalanine]
System L [2]; radiolabeled tryptophan 125 nM
  Ki: ~10 µM
[1]; [8]
  effect of 4 μM unlabeled competitor on tryptophan uptake: little impact
[1]; [9]
  competition with tryptophan for the high-affinity system: do not compete; also recorded: no detectable competition
System L [3]; [10]
  Km: 29 ± 2 µM

## NCCc1c[nH]c2ccc(O)cc12 [serotonin]
[1]; [9]
  competition with tryptophan for the high-affinity system: did not compete

## N[C@@H](Cc1ccc(O)cc1)C(=O)O [TYR, tyrosine]
[1]; [8]
  effect of 4 μM unlabeled competitor on tryptophan uptake: little impact

## Cn1cc(C[C@H](N)C(=O)O)c2ccccc21 [1-methyl tryptophan]
[1]; [9]
  competition with tryptophan for the high-affinity system: no competition

## CC(C)[C@H](N)C(=O)O [VAL]
[1]; [8]
  effect of 4 μM unlabeled competitor on tryptophan uptake: little impact

## CC(C)C[C@H](N)C(=O)O [leucine]
[1]; [8]
  effect of 4 μM unlabeled competitor on tryptophan uptake: little impact
[1]; [9]
  competition with tryptophan for the high-affinity system: do not compete
System L [3]; [10]
  Km: 26 ± 6 µM

## N[C@@H](Cc1c[nH]c2ccccc12)C(=O)O [tryptophan]
[4]
  Km: 0.29 ± 0.16 µM
  calculated uptake with the selective high-affinity system present: 70 fmol 10^6 cells^−1. 10 min^−1
System L [5]
  Km: 8 to 30 µM
[6]; 0° C. vs 25° C., up to 30 min
  reduction of the rate of tryptophan accumulation at 0° C.: 90%
[6]; radiolabeled tryptophan 125 nM, choline chloride vs 150 mM NaCl
  uptake in the absence of sodium relative to uptake in saline: 86% and 86±6%
[1]; radiolabeled tryptophan 125 nM, read-out: Ki (fit to Equation 1, single-system model)
  Ki: 0.36 µM
[1]; [11]
  IC50: 0.36 µM
[1]; [8]
  effect of 4 μM unlabeled competitor on tryptophan uptake: markedly inhibited
System L [3]; Equation 1, 50 nM tryptophan, 1 mM total other competing amino acids
  calculated uptake via system L alone: 1.5 fmol 10^6 cells^−1. 10 min^−1
System L [3]; after macrophage differentiation
  Vmax, system L component: 27±4 pmol 10^6 cells^−1. 10 min^−1
System L [3]; before macrophage differentiation
  Vmax, system L component: 14±8 pmol 10^6 cells^−1. 10 min^−1
System L [3]
  Km: 27 µM and 30 µM and 20 to 30 µM
System L [7]
  high-affinity inhibition of phenylalanine or leucine uptake: no detectable
System L [7]; read-out: Ki of tryptophan versus labeled leucine or phenylalanine uptake
  Ki: 30 µM

## NCCCC[C@H](N)C(=O)O [LYS]
[1]; [8]
  effect of 4 μM unlabeled competitor on tryptophan uptake: little impact

## CC(=O)N[C@@H](Cc1c[nH]c2ccccc12)C(=O)O [N-acetyl tryptophan]
[1]; [9]
  competition with tryptophan for the high-affinity system: did not compete

## N=C(N)NCCC[C@H](N)C(=O)O [ARG]
[1]
  effect of 4 μM unlabeled competitor on tryptophan uptake: little impact

## NC1(C(=O)O)CC2CCC1C2 (centres unmarked) [BCH, 2-aminobicyclo(2,2,1)-hepatane-2-carboxylic acid]
System L [2]; greater than 8 μM tryptophan, 500 μM unlabeled BCH
  mode of inhibition of tryptophan uptake, system L range: competitive inhibitor; also recorded: competitively inhibits
System L [2]; inhibition of tryptophan transport, radiolabeled tryptophan 125 nM
  IC50 of BCH relative to IC50 of tryptophan: approximately 100 fold
System L [2]; radiolabeled tryptophan 125 nM, unlabeled substrates 8 mM each
  inhibition of tryptophan transport by 8 mM unlabeled substrate: inhibited
System L [2]; radiolabeled tryptophan 125 nM
  Ki: 37 µM
System L [2]; [11]
  IC50: 37 µM
[1]; less than 1 μM tryptophan, 500 μM unlabeled BCH
  mode of inhibition of tryptophan uptake, high-affinity range: strictly non-competitive; also recorded: weak non-competitive inhibitor
[1]; saturation kinetics of tryptophan (<1 μM) with or without 500 μM BCH, read-out: IC50 for interaction with the high-affinity system
  IC50: > 500 µM
[1]; [8]
  effect of 4 μM unlabeled competitor on tryptophan uptake: minimal effect; also recorded: little impact
[1]; [9]
  competition with tryptophan for the high-affinity system: no evidence of competition; also recorded: did not compete; also recorded: not able to compete

## CC[C@H](C)[C@H](N)C(=O)O [ILE]
[1]; [8]
  effect of 4 μM unlabeled competitor on tryptophan uptake: little impact

## N[C@@H](Cc1c[nH]c2ccc(O)cc12)C(=O)O [5-hydroxy tryptophan]
[1]; [9]
  competition with tryptophan for the high-affinity system: did not compete
[1]; unlabeled competitor vs radiolabeled tryptophan (125 or 250 nM), listed as 5-hydroxy derivative of tryptophan
  competition with tryptophan for the high-affinity system: failed to compete

## N[C@H](Cc1c[nH]c2ccccc12)C(=O)O [D-tryptophan]
[1]
  competition with tryptophan for the high-affinity system: did not compete

## CSCC[C@H](N)C(=O)O [MET]
[1]; [8]
  effect of 4 μM unlabeled competitor on tryptophan uptake: little impact

## N[C@@H](Cc1c[nH]cn1)C(=O)O [HIS]
[1]; [8]
  effect of 4 μM unlabeled competitor on tryptophan uptake: little impact
